Literature values, collected in patent US20060198906A1, “Compositions and Method to Increase Serum Levels of HDL cholesterol and Lower the Risk of Cardiovascular Disease” (SAMI LABS LIMITED, priority 2005, published 2006).

Settings: dose range of 20-80 mg/day, clinical studies

For CC(C)c1nc(N(C)S(C)(=O)=O)nc(-c2ccc(F)cc2)c1/C=C/[C@@H](O)C[C@@H](O)CC(=O)O [Rosuvastatin], the “reduction of LDL levels” value is given as “up to 65%”.
